Assay type in all cases: cell-based
Data set [1] concerns human PBMC. The data set can be described thus: Induction of cytokines from human PBMC (ELISA cytokine capture assay). Particulars: PBMC of 3 healthy adults, 48 h; increase two-fold that of background control; SEQ ID NOs 1-3 100 μg/mL, CpG 2006 and MCC 1-100 μg/mL, LPS 10 μg/mL. The text has this:
A number of immune adjuvants are known to be capable of eliciting cytokines from human PBMC cells. Examples of such adjuvants are alum, lipopolysaccharide, monophosphoryl lipid A, CpG-containing polynucleotides and non-CpG-containing ODN's, as well as mycobacterial cell wall-DNA complex (MCC). […] PBMC were isolated from whole blood using standard Ficoll-Paque (GE Healthcare Life Sciences, Baie d'Urfé, QC, Canada) gradient centrifugation, and placed in tissue culture plates at a concentration of 10^6 cells/mL (total volume: 1 mL in RPMI 1640 medium containing 10% heat-inactivated FBS, both from Wisent, St-Bruno, QC, Canada) and 50 μg/mL gentamycin sulfate (Sigma-Aldrich Canada, Oakville, ON, Canada). SEQ ID NOs: 1, 2 or 3 were added to give a final concentration of 100 μg/mL, and the cells were cultivated for 48 h. Cytokines (IL-1β, IL-2, IL-6, IL-10 and IL-12p40) in the supernatant at the end of incubation were determined by ELISA using a cytokine capture assay process (Biosource, Camarillo, Calif.). SEQ ID NO: 32 CpG 2006 ODN (1-100 μg/mL, 5′-[…]-3′, […]), MCC (1-100 μg/mL) and LPS (10 μg/mL) were used as positive controls.
On the technique in general: In an ELISA, binding on a coated surface is turned into a signal by an enzyme label.

Data set [2] deals with T1, human TLR5 (Homo sapiens, UniProt O60602).
T1 construct: host or cells: HEK293
The data set can be described thus: NF-κB activation (secreted alkaline phosphatase reporter) in HEK293 cells expressing human TLR5. The settings on record: HEK293/hTLR5 cell line; polynucleotide final concentration 10 μg/mL; 16-20 hours. The protocol: (§1) Toll-like receptors (TLR) are known to interact with a number of natural and synthetic molecules that can function as immune adjuvants. Examples of these molecules are Poly (I:C) polynucleotides, lipopolysaccharide and CpG-containing polynucleotides. The interaction of non-DNA base-containing polynucleotides (SEQ ID NOs: 1-3) to interact with TLR and induce down-stream signaling was tested by assessing NF-κB activation in HEK293 cells expressing human TLR2, 3, 4, 5, 7, 8 and 9. TLR engagement was determined by measurement of secreted alkaline phosphatase, under the control of a reporter inducible by NF-κB. Appropriate positive controls were used for each TLR. The non-DNA base-containing polynucleotides were dissolved in sterile water at a concentration of 100 μg/mL, and used at a final concentration of 10 μg/mL. HEK293 cells containing the appropriate TLR and NF-κB reporting system (InvivoGen, San Diego, Calif., USA) were placed in wells of 96 well plates (25,000-50,000 cells, in a final volume of 200 μL medium designed for the detection of NF-κB induced secreted alkaline phosphatase expression), and incubated with non-DNA base-containing polynucleotides or positive controls for 16-20 hours. TLR activating activity was determined by measurement of absorbance at 650 nm wavelength using a Coulter AD340C absorbance detector. The results shown are expressed as Optical Density (OD).

Data set [3] has as its target T2, human TLR7 (Homo sapiens, UniProt Q9NYK1).
T2 construct: host or cells: HEK293
T2 sequence (Q9NYK1 27-1049): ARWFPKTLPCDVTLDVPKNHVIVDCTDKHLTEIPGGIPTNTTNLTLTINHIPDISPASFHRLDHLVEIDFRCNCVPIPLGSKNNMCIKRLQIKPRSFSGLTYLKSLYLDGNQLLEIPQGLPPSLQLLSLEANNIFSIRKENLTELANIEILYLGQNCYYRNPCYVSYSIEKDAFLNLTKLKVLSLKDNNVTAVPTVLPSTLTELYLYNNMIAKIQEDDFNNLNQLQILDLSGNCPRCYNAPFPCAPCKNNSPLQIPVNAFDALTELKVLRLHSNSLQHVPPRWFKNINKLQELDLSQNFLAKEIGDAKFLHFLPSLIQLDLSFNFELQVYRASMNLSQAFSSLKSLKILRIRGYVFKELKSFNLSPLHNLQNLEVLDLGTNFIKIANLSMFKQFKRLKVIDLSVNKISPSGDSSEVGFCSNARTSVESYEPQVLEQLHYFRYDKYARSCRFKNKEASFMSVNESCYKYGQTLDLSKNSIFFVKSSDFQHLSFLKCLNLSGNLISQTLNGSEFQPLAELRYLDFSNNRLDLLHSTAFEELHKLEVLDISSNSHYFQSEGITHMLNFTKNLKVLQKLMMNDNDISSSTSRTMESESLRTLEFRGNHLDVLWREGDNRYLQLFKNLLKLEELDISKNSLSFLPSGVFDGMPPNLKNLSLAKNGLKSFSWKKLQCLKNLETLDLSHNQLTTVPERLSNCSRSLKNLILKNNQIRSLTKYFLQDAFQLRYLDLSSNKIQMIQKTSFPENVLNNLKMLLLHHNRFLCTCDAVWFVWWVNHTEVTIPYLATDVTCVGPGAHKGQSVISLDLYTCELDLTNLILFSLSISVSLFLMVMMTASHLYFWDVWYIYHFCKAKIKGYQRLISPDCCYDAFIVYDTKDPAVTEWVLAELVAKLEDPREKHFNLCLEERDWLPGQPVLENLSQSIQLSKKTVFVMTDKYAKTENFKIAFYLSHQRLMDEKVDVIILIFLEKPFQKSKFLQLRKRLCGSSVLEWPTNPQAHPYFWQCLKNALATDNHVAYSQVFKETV
The data set can be described thus: NF-κB activation (secreted alkaline phosphatase reporter) in HEK293 cells expressing human TLR7. Particulars: HEK293/TLR7 cell line; polynucleotide final concentration 10 μg/mL; 16-20 hours. Here is the method: as §1, with “The interaction of non-DNA base-containing polynucleotides (SEQ ID NOs: 1-3) to interact with TLR and induce down-stream signaling was tested by assessing NF-κB activation in HEK293 cells expressing human TLR2, 3, 4, 5, 7, 8 and 9.” left out

The subject of data set [4] is NF-κB control cells. The data set can be described thus: NF-κB reporter control cells (secreted alkaline phosphatase). Particulars: polynucleotide final concentration 10 μg/mL, 16-20 hours. Here is the method: as §1

The source of these data is patent publication US20110111016A1, “NON-DNA BASE-CONTAINING POLYNUCLEOTIDE COMPOSITIONS AND THEIR USE FOR THE MODULATION OF IMMUNE RESPONSES” (priority 2009, published 2011).

T1 sequence (O60602 21-858): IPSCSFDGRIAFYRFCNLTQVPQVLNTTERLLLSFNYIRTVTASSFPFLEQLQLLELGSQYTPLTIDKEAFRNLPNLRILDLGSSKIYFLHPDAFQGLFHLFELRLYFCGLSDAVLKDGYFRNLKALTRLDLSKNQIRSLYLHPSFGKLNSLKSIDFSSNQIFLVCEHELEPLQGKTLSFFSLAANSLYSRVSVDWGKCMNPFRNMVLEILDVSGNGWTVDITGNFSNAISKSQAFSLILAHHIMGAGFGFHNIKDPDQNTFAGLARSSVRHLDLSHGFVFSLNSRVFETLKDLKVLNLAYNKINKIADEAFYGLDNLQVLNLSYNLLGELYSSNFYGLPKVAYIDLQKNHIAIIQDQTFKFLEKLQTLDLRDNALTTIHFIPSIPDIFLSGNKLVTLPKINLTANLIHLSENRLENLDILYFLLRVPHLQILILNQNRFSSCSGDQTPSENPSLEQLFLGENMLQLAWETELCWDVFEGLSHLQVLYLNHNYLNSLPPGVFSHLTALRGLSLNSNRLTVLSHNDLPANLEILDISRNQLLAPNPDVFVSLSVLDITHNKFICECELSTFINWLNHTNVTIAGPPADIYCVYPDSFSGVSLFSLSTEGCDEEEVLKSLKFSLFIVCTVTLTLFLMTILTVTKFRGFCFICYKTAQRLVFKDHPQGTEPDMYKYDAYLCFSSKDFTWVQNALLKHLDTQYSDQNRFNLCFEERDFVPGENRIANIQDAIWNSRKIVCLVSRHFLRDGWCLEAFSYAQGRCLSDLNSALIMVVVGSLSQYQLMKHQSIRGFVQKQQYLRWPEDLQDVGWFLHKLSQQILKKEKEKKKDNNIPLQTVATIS

Regarding IIGTII [SEQ ID NO: 3], in data set [1], the “Number of individuals responding, IL-1β” value is 0/3; the “Number of individuals responding, IL-2” value is recorded as 0/3; the “Number of individuals responding, IL-6” value is given as 3/3; the “Number of individuals responding, IL-10” value is 0/3. The “Number of individuals responding, IL-12p40” value (“Number … IL-12p40” below) in data set [1] is reported as 0/3. In addition, in data set [2], the “TLR activation, Optical Density at 650 nm, hTLR5” value (shortened to “TLR activation … hTLR5”) amounted to 0.155. In addition, in data set [3], the “TLR activation, Optical Density at 650 nm, hHTR7” value (“TLR activation … hHTR7” below) was found to be 0.093. For the same substance, the “Optical Density at 650 nm, NF-κB control cells” value in data set [4] came out at 0.074.
“NebGGTGNeb (DNA NGGTGN; Nebularine at both ends, sugar and linkages not given here, further chemistry not given here) [SEQ ID NO: 1, 5′-OH, 3′-OH non-DNA base-containing polynucleotide]”: in data set [1], the “Number of individuals responding, IL-1β” value is recorded as 3/3; the “Number of individuals responding, IL-2” value was 0/3; the “Number of individuals responding, IL-6” value is on record as 3/3; the “Number of individuals responding, IL-10” value is given as 0/3. Further, in data set [1], the “Number … IL-12p40” value is recorded as 3/3. Also, the “TLR activation … hTLR5” value in data set [2] was 0.158. The “TLR activation … hHTR7” value in data set [3] turned out to be 0.097. In addition, in data set [4], the “Optical Density at 650 nm, NF-κB control cells” value worked out at 0.078.
UUGTUU [SEQ ID NO: 2]: in data set [1], the “Number of individuals responding, IL-1β” value is 0/3; the “Number of individuals responding, IL-2” value is 0/3; the “Number of individuals responding, IL-6” value was 1/3; the “Number of individuals responding, IL-10” value is 0/3. The “Number … IL-12p40” value in data set [1] was 3/3. In addition, in data set [2], the “TLR activation … hTLR5” value is 0.143. For the same substance, in data set [3], the “TLR activation … hHTR7” value came to 0.090. Also, the “Optical Density at 650 nm, NF-κB control cells” value in data set [4] was 0.076.
